Fold change and IC50 data for 2 molecules are collected here from PMC8458281, “Computational modeling and experimental validation of the EPI-X4/CXCR4 complex allows rational design of small peptide antagonists” (Communications Biology, 2021).

One assay relates to CXCR4 L41A. Description: 12G5 antibody competition, 293T cells transfected with CXCR4 L41A. To be noted: IC50 on CXCR4 L41A relative to wt. In kind it is binding, human. On the procedure: (§1) Fig. 4 The interactions of EPI-X4 and the EPI-X4 derivatives WSC02 and JM#21 with point-mutated CXCR4 were assessed by an antibody competition assay. Amino acid substitutions were introduced in the sequence of CXCR4 by site-directed mutagenesis, cloned into an IRES-eGFP expression vector, and transfected into 293 T cells. Afterward, cells were incubated with serially diluted EPI-X4 (a, b), WSC02 (c, d), or JM#21 (e, f) in presence of a constant concentration of CXCR4 specific antibody (clone 12G5). After 2 h, bound antibody was analyzed by flow cytometry. a, c, e) Representative dose-dependent replacement of 12G5 antibody by peptides. b, d, f) IC50 values were calculated by nonlinear regression. Shown are data derived from at least three individual experiments ± SEM. IC50 values were set to 1000 µM (EPI-X4 and WSC02) or 100 µM (JM#21) if the value exceeds the maximally used concentration. *p ≤ 0.05, ***p ≤ 0.001 (one-way ANOVA for comparison with wt). For IC50 values see Table 1. For all binding curves see also Fig. S8.
(§2) Mutated CXCR4 constructs were transfected into 293 T cells that have a very low endogenous expression level of wild-type CXCR4. Transfected cells were then analyzed for CXCR4 surface expression (Fig. S5a) and EPI-X4 binding using a flow cytometry-based antibody competition assay (Fig. S5b, c)[33]. […]

The next assay deals with CXCR4 D97E. Description: 12G5 antibody competition, 293T cells transfected with CXCR4 D97E. To be noted: IC50 on CXCR4 D97E relative to wt. The class given is binding, human. On the procedure: as §1, §2
The test system of a further assay is CXCR4 D97S. As to the kind of experiment: 12G5 antibody competition, 293T cells transfected with CXCR4 D97S. In kind it is binding, human. To be noted: IC50 on CXCR4 D97S relative to wt. On the procedure: as §1, §2
In the next assay the test system is CXCR4 D97T. Description: 12G5 antibody competition, 293T cells transfected with CXCR4 D97T. The class given is binding, human. To be noted: IC50 on CXCR4 D97T relative to wt. How it is done: as §1, §2
Another assay has as its system CXCR4 D97N. As to the kind of experiment: 12G5 antibody competition, 293T cells transfected with CXCR4 D97N. The class given is binding, human. To be noted: IC50 on CXCR4 D97N relative to wt. On the procedure:
as §1, §2

In the next assay the test system is CXCR4 V112A. As to the kind of experiment: 12G5 antibody competition, 293T cells transfected with CXCR4 V112A. The class given is binding, human. To be noted: IC50 on CXCR4 V112A relative to wt. How it is done:
as §1, §2

A further assay relates to CXCR4 V112L. As to the kind of experiment: 12G5 antibody competition, 293T cells transfected with CXCR4 V112L. The class given is binding, human. To be noted: IC50 on CXCR4 V112L relative to wt. How it is done:
as §1, §2

The next assay concerns CXCR4 D187E. As to the kind of experiment: 12G5 antibody competition, 293T cells transfected with CXCR4 D187E. In kind it is binding, human. To be noted: IC50 on CXCR4 D187E relative to wt. How it is done: as §1, §2
The subject of a further assay is CXCR4 E277A. As to the kind of experiment: 12G5 antibody competition, 293T cells transfected with CXCR4 E277A. The class given is binding, human. To be noted: IC50 on CXCR4 E277A relative to wt. How it is done:
as §1, §2

The next assay has as its system CXCR4 D97E + V112L. As to the kind of experiment: 12G5 antibody competition, 293T cells transfected with CXCR4 D97E + V112L. In kind it is binding, human. To be noted: IC50 on CXCR4 D97E + V112L relative to wt. How it is done:
as §1, §2

The next assay concerns CXCR4 V112A + L41A. As to the kind of experiment: 12G5 antibody competition, 293T cells transfected with CXCR4 V112A + L41A. In kind it is binding, human. To be noted: IC50 on CXCR4 V112A + L41A relative to wt. How it is done:
as §1, §2

Assay [1] deals with CXCR4 D97E + V112A + L41A. As to the kind of experiment: 12G5 antibody competition, 293T cells transfected with CXCR4 D97E + V112A + L41A. The class given is binding, human. To be noted: IC50 on CXCR4 D97E + V112A + L41A relative to wt. On the procedure: as §1, §2
The target of assay [2] is T1, C-X-C motif chemokine receptor 4 (CXCR4) on SupT1 cells (human (endogenous in SupT1), UniProt P61073 1-352).
T1 construct: CXCR4 as expressed on SupT1 cells; source: endogenous, on SupT1 cells
T1 sequence (P61073 whole entry): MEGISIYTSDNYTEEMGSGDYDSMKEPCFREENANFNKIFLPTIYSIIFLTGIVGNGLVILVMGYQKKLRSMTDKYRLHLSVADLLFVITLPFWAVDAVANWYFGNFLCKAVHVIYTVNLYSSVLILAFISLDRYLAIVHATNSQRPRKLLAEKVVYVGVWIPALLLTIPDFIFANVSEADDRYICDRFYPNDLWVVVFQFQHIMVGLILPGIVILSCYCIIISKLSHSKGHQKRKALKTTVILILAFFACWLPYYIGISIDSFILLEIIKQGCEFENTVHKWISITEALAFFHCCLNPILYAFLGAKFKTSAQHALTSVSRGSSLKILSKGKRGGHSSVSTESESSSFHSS
Description: flow cytometry on cells; 12G5 antibody competition on SupT1 cells; peptides in PBS with APC-conjugated 12G5 at a concentration close to its EC50, 4 °C, 2 h; MFI normalized to PBS control; IC50 by nonlinear regression. To be noted: one partner purified.

For the molecule “IVRWSKKVPCVS [WSC02, first-generation C-terminally truncated 12-mer derivative of EPI-X4 with four substitutions]”, the Fold change in the assay on CXCR4 L41A was 1.5; with CXCR4 D97E, 8; with CXCR4 D97S, 18; with CXCR4 D97T, 31; with CXCR4 D97N it was 466; in the assay with CXCR4 V112A it was 0.6. Moreover, the Fold change with CXCR4 V112L is recorded as 0.4; in the assay on CXCR4 D187E, 0.4; in the assay on CXCR4 E277A, 0.7; in the assay on CXCR4 D97E + V112L it was 1.8; with CXCR4 V112A + L41A it was 4; in assay [1], 5.

B1: EPI-X4 (Alb408-423) (peptide)
peptide: LVRYTKKVPQVSTPTL
notes: source: synthetic peptide (Fmoc solid-phase synthesis, HPLC-purified)
For B1, in assay [2], the IC50 worked out at 2390 nM.
